Measurements: patent US20240376126A1, “PRMT5 INHIBITOR AND THE USE THEREOF” (CYTOSINLAB THERAPEUTICS CO., LTD., priority 2022, published 2024)
Like-named read-outs stand apart in the source and are kept apart here.

Tests used:
HCT116 MTAP WT cells = test: Proliferation inhibition of HCT116 cells in vitro (CellTiter Glo, 6 days); type: cell-based; details: read-out: Cell proliferation inhibition rate HCT116 MTAP WT IC50 (nm)
From the text: (§1) Biological Test Example 2 Proliferation Inhibition of HCT116 and HCT116 MTAP-KO Cells In Vitro
(§2) HCT116 cell line was purchased from the Chinese Academy of Sciences Cell Bank, and the MTAP gene was knocked out by CRISPR/Cas9 technology to obtain HCT116-MTAP-KO cell line.
(§3) McCoy's 5A medium (Gibco, catalog No. 16600082), fetal bovine serum (Gibco, catalog No. 10099141C), penicillin-streptomycin double antibody (Gibco, catalog No. 15140122), pancreatic enzyme (Gibco, catalog No. 25200056), CellTiter Glo assay kit (Promega, catalog No. G7572), 384-well transparent flat-bottomed black walled cell culture plate (Corning, catalog No. 3764), ultra micro sampler (Tecan, catalog No. D300e), Multimode reader (Biotek, catalog No. SynergyHTX)
(§4) • 1. Cell culture: HCT116 and HCT116-MTAP-KO cells were cultured in McCoy'5A medium+10% fetal bovine serum+1% penicillin-streptomycin double antibody; to ensure that they were always in the logarithmic growth phase and the cell viability greater than 95%. • 2. Compound concentration gradient preparation: The compound to be tested was added to a 384-well plate using an ultra micro sampler, starting from 30 μM (HCT116 cells) or 3 μM (HCT116-MTAP-KO cells), and diluted with DMSO at 3 times for a total of 9 concentrations and set up three duplicate wells. • 3. Treatment of cells with compounds: Trypsin-digested HCT116 or HCT116-MTAP-KO cell suspension was added to the 384-well plates spotted with the compounds to be tested at 40 μL per well, i.e., 100 cells per well, and the final concentration of DMSO was 0.4%. The cell culture plate was incubated at 37° C. in a 5% CO2 incubator for 6 days. • 4. Detection: 20 μL of CellTiter Glo reagent was added to each well of the cell culture plate and incubated at room temperature for 30 minutes. A multimode reader was used to detect the luminescence signal at […]. • 5. Data analysis:
(§5) The data was fitted with GraphPad Prism 8.0 software using a four parameter inhibitor-reaction model to obtain the […] (half inhibitory concentration) of the test compounds.
(§6) The first column represents cell proliferation inhibition rate HCT116 MTAP WT IC50 (nm), and the second column represents cell proliferation inhibition rate HCT116-MTAP null IC50 (nm): […]

[1] = test system: HCT116-MTAP-KO (MTAP null) cells; test: Proliferation inhibition of HCT116 MTAP-KO cells in vitro (CellTiter Glo, 6 days); type: cell-based; details: read-out: Cell proliferation inhibition rate HCT116-MTAP null IC50 (nm)
From the text: as §1, §2, §3, §4, §5, §6

SMILES	IC50 (HCT116 MTAP WT cells; Homo sapiens, HCT-116, 144 h) [nM]	IC50 ([1]; HCT116-MTAP null, 144 h) [nM]	IC50 (HCT116 MTAP WT cells) [nM]	IC50 [1] [nM]	IC50 ([1]; 144 h) [nM]
Cn1ncc(F)c1N(Cc1cn2cc(C(F)(F)F)ccc2n1)C(=O)c1ccc2nc(N)c3cnn(C)c3c2c1 [Example 115]	100 to 1000	< 100			
CC(c1ncccn1)N(Cc1cc2ccccn2n1)C(=O)c1ccc2nc(N)c3c(c2c1)CCC3 (stereo not shown) [Example 116]	1000 to 10000	< 100			
CCN(C(=O)c1ccc2nc(N)c3c(cnn3C)c2c1)C(C)c1cc2ccccn2n1 (stereo not shown) [Example 117]	1000 to 10000	100 to 1000			
CCN(Cc1cc2ccccn2n1)C(=O)c1ccc2nc(N)c3c(cnn3C)c2c1 [Example 118]	1000 to 10000	100 to 1000			
CCN(C(=O)c1ccc2nc(N)c3c(c2c1)COC3)C(C)c1cc2ccccn2n1 (stereo not shown) [Example 119, 4-Amino-N-ethyl-N-(1-(pyrazolo[1,5-a]pyridin-2-yl)ethyl)-1,3-dihydrofurano[3,4-c]quinolin-8-carboxamide]	1000 to 10000	< 100			
Cc1cc2cc(C(=O)N(Cc3cc4ccccn4n3)C(C)c3ncccn3)ccc2nc1N (stereo not shown) [Example 120]	1000 to 10000	< 100			
CCN(Cc1cc2ccccn2n1)C(=O)c1ccc2nc(N)c3c(c2c1)COC3C (stereo not shown) [Example 121]	1000 to 10000	100 to 1000			
Cc1cc2cc(C(=O)N(Cc3cc4ccccn4n3)C(C)c3cccc(F)n3)ccc2nc1N (stereo not shown) [Example 122]	1000 to 10000	< 100			
C[C@H]1COC[C@@H](c2cc3ccccn3n2)N1C(=O)c1cc2c(cc1F)nc(N)c1cnn(C)c12 [Example 123]	100 to 1000	< 100			
C[C@H]1COC[C@@H](c2cc3ccccn3n2)N1C(=O)c1cc2c3c(c(N)nc2cc1F)COC3 [Example 124]	1000 to 10000	< 100			
Cc1nn(C)cc1N(Cc1cc2ccc(C(F)(F)F)cn2n1)C(=O)c1ccc2nc(N)c3c(c2c1)COC3 [Example 126]	1000 to 10000	< 100			
CC(c1ncccn1)N(Cc1nc2ccccc2[nH]1)C(=O)c1ccc2nc(N)c3c(c2c1)CCC3 (stereo not shown) [Example 128]	100 to 1000	100 to 1000			
COCC(C1CC1)N(Cc1nc2ccccc2[nH]1)C(=O)c1ccc2nc(N)c3c(c2c1)CCC3 (stereo not shown) [Example 129]	1000 to 10000	< 100			
CC(C)N(Cc1nc2ccccc2[nH]1)C(=O)c1ccc2cc(N)c3c(c2c1)CCC3 [Example 130]	1000 to 10000	< 100			
CC(C)CN(Cc1nc2ccc(C(F)(F)F)cc2[nH]1)C(=O)c1ccc2nc(N)c3c(c2c1)COC3 [Example 131]	1000 to 10000	100 to 1000			
CC(C)CN(Cc1nc2cc(S(F)(F)(F)(F)F)ccc2[nH]1)C(=O)c1cc2c(cc1F)nc(N)c1cnn(C)c12 [Example 133]	100 to 1000	< 100			
CCN(Cc1nc2ccc(C(F)(F)F)cc2[nH]1)C(=O)c1ccc2nc(N)c3c(c2c1)COC3C (stereo not shown) [Example 134]	1000 to 10000	< 100			
CCN(Cc1nc2ccccc2[nH]1)C(=O)c1ccc2nc(N)c3c(c2c1)COC3C (stereo not shown) [Example 135]	1000 to 10000	100 to 1000			
CC(C)CN(Cc1nc2ccccc2[nH]1)C(=O)c1ccc2nc(N)c3c(c2c1)COC3C (stereo not shown) [Example 136]	1000 to 10000	100 to 1000			
Cc1ncc2c(N)nc3cc(F)c(C(=O)N(Cc4nc5ccc(S(F)(F)(F)(F)F)cc5[nH]4)CC(C)C)cc3n12 [Example 139]	1000 to 10000	< 100			
CCN(Cc1nc2cc(C(F)(F)F)ccc2[nH]1)C(=O)c1cc2c(cc1F)nc(N)c1cnc(C)n12 [Example 140]	1000 to 10000	100 to 1000			
Cc1ncc2c(N)nc3cc(F)c(C(=O)N(Cc4nc5ccc(C(F)(F)F)cc5[nH]4)c4ccnn4C)cc3n12 [Example 142]			1000 to 10000	100 to 1000	

SMILES	IC50 (HCT116 MTAP WT cells; Homo sapiens, HCT-116, 144 h) [nM]	IC50 ([1]; HCT116-MTAP null, 144 h) [nM]	IC50 (HCT116 MTAP WT cells) [nM]	IC50 [1] [nM]	IC50 ([1]; 144 h) [nM]
COCC(C1CC1)N(Cc1nc2ccccc2s1)C(=O)c1ccc2nc(N)c(C)cc2c1 (stereo not shown) [Example 146]	1000 to 10000				100 to 1000
COCC(C1CC1)N(Cc1nc2cc(C(F)(F)F)ccc2s1)C(=O)c1ccc2nc(N)c(C)cc2c1 (stereo not shown) [Example 150]	1000 to 10000	100 to 1000			
COCC(C1CC1)N(Cc1nc2cc(Br)ccc2s1)C(=O)c1ccc2nc(N)c(C)cc2c1 (stereo not shown) [Example 151]	1000 to 10000	100 to 1000			
CC(c1ncccn1)N(Cc1nc2cc(C(F)(F)F)ccc2s1)C(=O)c1ccc2nc(N)c3c(c2c1)CCC3 (stereo not shown) [Example 153]	1000 to 10000	100 to 1000			
COCC(C1CC1)N(Cc1nc2cc(C(F)(F)F)ccc2s1)C(=O)c1ccc2nc(N)c3c(c2c1)CCC3 (stereo not shown) [Example 154]	1000 to 10000	100 to 1000			
CC(c1ncccn1)N(Cc1nc2ccccn2n1)C(=O)c1ccc2nc(N)c3c(c2c1)CCC3 (stereo not shown) [Example 155]	1000 to 10000	100 to 1000			
CC(c1ncccn1)N(Cc1cc2n(n1)CCOC2)C(=O)c1ccc2nc(N)c3c(c2c1)CCC3 (stereo not shown) [Example 156]	1000 to 10000	100 to 1000			
CC(c1ncccn1)N(Cc1cn2c(n1)COCC2)C(=O)c1ccc2nc(N)c3c(c2c1)CCC3 (stereo not shown) [Example 157]	1000 to 10000	100 to 1000			
Cc1cn2c(n1)c(N)nc1cc(F)c(C(=O)N(Cc3cn4ccccc4n3)CC(C)C)cc12 [Example 158]	1000 to 10000	100 to 1000			
CCN(Cc1cc2ccccn2n1)C(=O)c1ccc2nc(N)c3cnc(C)n3c2c1 [Example 159]	1000 to 10000	100 to 1000			
Cc1ncc2c(N)nc3ccc(C(=O)N(Cc4nc5cnccc5s4)CC(C)C)cc3n12 [Example 160]	1000 to 10000	100 to 1000			
Cc1nc(C)n2c1c(N)nc1cc(F)c(C(=O)N(Cc3cn4ccccc4n3)CC(C)C)cc12 [Example 162]	1000 to 10000	100 to 1000			
CCN(C(=O)c1cc2c(cc1F)nc(N)c1cnc(C)n12)C(C)c1cn2ccccc2n1 (stereo not shown) [Example 163]	1000 to 10000	100 to 1000			
COCCN(Cc1cn2ccccc2n1)C(=O)c1cc2c(cc1C)nc(N)c1cnc(C)n12 [Example 166]	100 to 1000	< 100			
Cc1nc(C)n2c1c(N)nc1ccc(C(=O)N(C)C3COc4cc(-c5cnn(C(F)(F)F)c5)ccc43)cc12 (stereo not shown) [Example 167]	1000 to 10000	100 to 1000			
Cc1cn2c(n1)c(N)nc1ccc(C(=O)N3C(C)COC[C@@H]3c3cn4ccccc4n3)cc12 (stereo partly shown) [Example 168]	1000 to 10000	100 to 1000			
Cc1ncc2c(N)nc3cc(F)c(C(=O)N(Cc4cn5ccccc5n4)C45CC(C4)C5)cc3n12 [Example 169]	100 to 1000	< 100			
Cc1cn2c(n1)c(N)nc1cc(F)c(C(=O)N3C(C)COC[C@@H]3c3cn4cc(C(F)(F)F)ccc4n3)cc12 (stereo partly shown) [Example 170]	100 to 1000	< 100			
COCCN(C(=O)c1cc2c(cc1F)nc(N)c1cnc(C)n12)C(C)c1cn2ccccc2n1 (stereo not shown) [Example 171]	1000 to 10000	100 to 1000			
Cc1ncc2c(N)nc3cc(F)c(C(=O)N4C(C)COC[C@@H]4c4cn5cc(C(F)(F)F)ccc5n4)cc3n12 (stereo partly shown) [Example 172]	100 to 1000	< 100			
[2H]C([2H])([2H])N(Cc1cn2cc(C(F)(F)F)ccc2n1)C(=O)c1cc2c(cc1F)nc(N)c1cnc(C)n12 [Example 173]	1000 to 10000	100 to 1000			
Cc1cn2c(n1)c(N)nc1cc(F)c(C(=O)N3C(C)COC[C@@H]3c3cn4ccccc4n3)cc12 (stereo partly shown) [Example 174]	< 100	100 to 1000			
